According to patent US10351548B2, “2-oxo-1,2-dihydropyridine-3-carboxamide compounds and their use as inhibitors of PDK1” (INTERNATIONAL SOCIETY FOR DRUG DEVELOPMENT S.R.L., priority 2015, dated 2019):

Key:
[1] = system: GSCs isolated from U87MG cells; assay: GSC proliferation, MTS assay; assay type: cell-based, human; settings: Homo sapiens, U-87 MG, 168 h; seven days of treatment, MTS assay
Procedure: (§1) The U87MG cell line was obtained from the National Institute for Cancer Research of Genoa (Italy) and cultured in DMEM 10% FBS and 2 mM glutamine. To isolate GSCs, approximately 2.0×10^6 cells were suspended in 1 mL of a defined serum-free Neural Stem Cell (NSC) medium (Daniele, S., et al., Modulation of A1 and A2B adenosine receptor activity: a new strategy to sensitise glioblastoma stem cells to chemotherapy. Cell death & disease, 2014. 5(11): p. e1539). After 3-4 days of culture, the neurospheres were collected, suspended in NSC medium, dissociated into single cells, and plated for the assays. For the long-term treatment of cells, NSC or complete medium containing drugs was replaced every two to three days.
(§2) The human U87MG cells or GSCs were seeded at a density of 3×10^3 cells/well. After 24 h, the cells were treated from one to seven days with fresh growth medium containing different concentrations of SA16, SA23 or IB35. Following the treatment period, cell proliferation was determined using the MTS assay according to manufacturer's instruction. The absorbance of formazan at […] was measured in a colorimetric assay with an automated plate reader (Victor Wallac 2, Perkin Elmer). The results were calculated by subtracting the mean background from the values obtained from each evaluation and were expressed as the percentage of the control (untreated cells). Sigmoid dose-response curve was generated, from which the IC50 values were derived.
The inhibition of PDK1 has been reported as potentially effective therapeutic approach to reduce self-renewal and propagation of GSCs (Signore, M., et al., Combined PDK1 and CHK1 inhibition is required to kill glioblastoma stem-like cells in vitro and in vivo. Cell death & disease, 2014. 5(5): p. e1223). On this basis, the effects of SA16, SA23 and IB35 on GSCs, isolated from U87MG cells as previously reported, were evaluated (Daniele, S., et al., Modulation of A1 and A28 adenosine receptor activity: a new strategy to sensitise glioblastoma stem cells to chemotherapy. Cell death & disease, 2014. 5(11): p. e1539). U87MG-derived GSCs were incubated with the indicated concentrations of IB35, SA23 or SA16 for four days (FIG. 8) or seven days (FIG. 9). At the end of the treatment periods, cell proliferation was measured using the MTS assay. The data were expressed as a percentage with respect to that of untreated cells (control), which was set to 100%, and are the mean values±SEM of three independent experiments, each performed in duplicate. IC50 values after seven days of treatment were calculated from sigmoid dose-response curve (FIG. 9). The significance of the differences was determined with a one-way ANOVA with Bonferroni post-test (** p<0.01, *** p<0.001 vs. control).

[2] = system: U87MG cells; assay: U87MG cell proliferation, MTS assay; assay type: cell-based, human; settings: Homo sapiens, U-87 MG; 72 h, MTS assay; read-out: IC50 U87MG
Procedure: as §1, §2
As representative GBM cell line, the above U87MG cells were used; this human cell line resulted an appropriate model to study the effects of PDK1 inhibition, because it is deficient for the tumour suppressor phosphatase and tensin homologue (PTEN), a negative regulator of the PI3K/AKT pathway (Wang, S. I., et al., Somatic mutations of PTEN in glioblastoma multiforme. Cancer research, 1997. 57(19): p. 4183-4186). To examine the effects of SA16, SA23 and IB35 on GBM cell growth/survival, U87MG cells were incubated with different concentrations of the new compounds (1 nM-10 μM) for 24 and 72 h. Specifically, U87MG cells were treated in complete medium with different concentrations of SA16, SA23 or IB35 (1 nM-10 μM) for 24 h (A) or 72 h (B). At the end of treatment, cell proliferation was measured using the MTS assay. The data are expressed as a percentage with respect to that of untreated cells (control), which was set to 100%, and are the mean values±SEM of three independent experiments, each performed in duplicate. The significance of the differences reported in FIGS. 1 and 2 was determined with a one-way ANOVA with Bonferroni post-test (* p<0.05, **p<0.01, *** p<0.001 vs. control cells).

[3] = biological target: PDK1 Direct kinase (Homo sapiens (Human), UniProt O15530); assay: Kinase-specific FRET-based Z'-LYTE assay against PDK1 Direct kinase; assay type: biochemical; settings: for IC50: read-out: PDK1 IC50
Procedure: The compounds of Formula (I) and (II) were tested in the biological test named Kinase-specific Z′-LYTE® assay (Invitrogen Corporation, Life Technologies).

PDK1 Direct kinase, sequence (O15530 whole entry): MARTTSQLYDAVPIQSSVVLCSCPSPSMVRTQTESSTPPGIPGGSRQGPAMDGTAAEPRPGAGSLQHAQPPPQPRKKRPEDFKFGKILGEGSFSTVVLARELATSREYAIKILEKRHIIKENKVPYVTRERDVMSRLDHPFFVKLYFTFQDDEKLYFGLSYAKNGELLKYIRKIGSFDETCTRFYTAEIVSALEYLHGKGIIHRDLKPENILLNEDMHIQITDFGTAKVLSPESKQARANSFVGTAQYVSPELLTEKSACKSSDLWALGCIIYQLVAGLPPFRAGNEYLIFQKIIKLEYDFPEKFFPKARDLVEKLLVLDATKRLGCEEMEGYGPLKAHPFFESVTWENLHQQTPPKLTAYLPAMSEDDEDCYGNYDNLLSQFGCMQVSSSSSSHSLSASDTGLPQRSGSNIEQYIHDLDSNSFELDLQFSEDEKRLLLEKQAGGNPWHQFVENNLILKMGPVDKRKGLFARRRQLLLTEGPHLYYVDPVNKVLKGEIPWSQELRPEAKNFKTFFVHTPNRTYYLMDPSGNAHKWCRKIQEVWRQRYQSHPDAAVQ

CO[C@H]1C[C@@H]2CC[C@@H](C)[C@@](O)(O2)C(=O)C(=O)N2CCCC[C@H]2C(=O)O[C@H]([C@H](C)C[C@@H]2CC[C@@H](OCCO)[C@H](OC)C2)CC(=O)[C@H](C)/C=C(\C)[C@@H](O)[C@@H](OC)C(=O)[C@H](C)C[C@H](C)/C=C/C=C/C=C/1C [Everolimus, reference compound]
IC50 [1]: 15 ± 1.2 nM
IC50 [2]: 50 ± 2.8 nM

O=C(CCNC(=O)c1cccn(Cc2ccc(F)c(F)c2)c1=O)Nc1ccc2c(c1)/C(=C/c1ccc(F)cc1)C(=O)N2 [DD23, (Z)-1-(3,4-difluorobenzyl)-N-(3-((3-(4-fluorobenzylidene)-2-oxoindolin-5-yl)amino)-3-oxopropyl)-2-oxo-1,2-dihydropyridine-3-carboxamide]
inhibition at 10 µM [3]: 15%

O=C(CCNC(=O)c1cccn(Cc2ccc(F)c(F)c2)c1=O)Nc1ccc2c(c1)/C(=C/c1cccs1)C(=O)N2 [DD22, (E/Z)-1-(3,4-difluorobenzyl)-2-oxo-N-(3-oxo-3-((2-oxo-3-(thiophen-2-ylmethylene)indolin-5-yl)amino)propyl)-1,2-dihydropyridine-3-carboxamide]
inhibition at 10 µM [3]: > 50%
IC50 [3]: 1340 nM

O=C1Nc2ccc(NC(=O)c3cccc(NC(=O)c4cccn(Cc5ccc(F)c(F)c5)c4=O)c3)cc2C1=Cc1cccs1 (mixture of isomers) [DD41, (E/Z)-1-(3,4-difluorobenzyl)-2-oxo-N-(3-((2-oxo-3-(thiophen-2-ylmethylene)indolin-5-yl)carbamoyl)phenyl)-1,2-dihydropyridine-3-carboxamide]
inhibition at 10 µM [3]: 26%

O=C(CCCNC(=O)c1cccn(Cc2ccc(F)c(F)c2)c1=O)Nc1ccc2c(c1)/C(=C/c1cnc[nH]1)C(=O)N2 [DF8, (Z)-N-(4-((3-((1H-imidazol-5-yl)methylene)-2-oxoindolin-5-yl)amino)-4-oxobutyl)-1-(3,4-difluorobenzyl)-2-oxo-1,2-dihydropyridine-3-carboxamide]
inhibition at 10 µM [3]: > 50%

O=C(CCCNC(=O)c1cccn(Cc2ccc(F)c(F)c2)c1=O)Nc1ccc2c(c1)C(=Cc1cccs1)C(=O)N2 (mixture of isomers) [DF9, (E/Z)-1-(3,4-difluorobenzyl)-2-oxo-N-(4-oxo-4-((2-oxo-3-(thiophen-2-ylmethylene)indolin-5-yl)amino)butyl)-1,2-dihydropyridine-3-carboxamide]
inhibition at 10 µM [3]: > 50%
IC50 [3]: 5880 nM

O=C1Nc2ccc(NC(=O)c3cccn(Cc4ccc(F)c(F)c4)c3=O)cc2/C1=C/c1cnc[nH]1 [JJ31, (Z)—N-(3-((1H-imidazol-5-yl)methylene)-2-oxoindolin-5-yl)-1-(3,4-difluorobenzyl)-2-oxo-1,2-dihydropyridine-3-carboxamide]
inhibition at 10 µM [3]: > 50%
IC50 [3]: 512 nM

O=C(CCNC(=O)c1cccn(Cc2ccc(F)c(F)c2)c1=O)Nc1ccc2c(c1)/C(=C/c1ncc[nH]1)C(=O)N2 [DD25, (Z/E)-N-(3-((3-((1H-imidazol-2-yl)methylene)-2-oxoindolin-5-yl)amino)-3-oxopropyl)-1-(3,4-difluorobenzyl)-2-oxo-1,2-dihydropyridine-3-carboxamide]
inhibition at 10 µM [3]: 47%

O=C(CNC(=O)c1cccn(Cc2ccc(F)c(F)c2)c1=O)Nc1ccc2c(c1)C(=Cc1cccs1)C(=O)N2 (mixture of isomers) [IB36, (E/Z)-1-(3,4-difluorobenzyl)-2-oxo-N-(2-oxo-2-((2-oxo-3-(thiophe-2-ylmethylene)indolin-5-yl)amino)ethyl)-1,2-dihydropyridine-3-carboxamide]
inhibition at 10 µM [3]: 19%

O=C(CCNC(=O)c1cccn(Cc2ccc(F)c(F)c2)c1=O)Nc1ccc2c(c1)/C(=C/c1cnc[nH]1)C(=O)N2 [DD21, (Z)—N-(3-((3-((1H-imidazol-5-yl)methylene)-2-oxoindolin-5-yl)amino)-3-oxopropyl)-1-(3,4-difluorobenzyl)-2-oxo-1,2-dihydropyridine-3-carboxamide]
inhibition at 10 µM [3]: > 50%

O=C(CNC(=O)c1cccn(Cc2ccc(F)c(F)c2)c1=O)Nc1ccc2c(c1)CC(=O)N2 [IB32, 1-(3,4-difluorobenzyl)-2-oxo-N-(2-oxo-2-((2-oxoindolin-5-yl)amino)ethyl)-1,2-dihydropyridine-3-carboxamide]
inhibition at 10 µM [3]: > 50%
IC50 [3]: 6680 nM
